Measured values from US8900644B2, “Oral care compositions containing compounds from magnolia and hops extracts” (Colgate-Palmolive Company, priority 2004, dated 2014).

Experiments:
Assay in all cases: in vitro test Minimal Inhibitory Concentration (MIC)
Format in all cases: cell-based
[1] = system: V. parvula
Text: (§1) For example, the oral compositions of the present invention are bactericidal against representative oral bacteria, such as S. mutans, F. nucleatum, V. parvula, A. naeslundii, and P. gingivitis as measured by the in vitro test Minimal Inhibitory Concentration (MIC). The oral composition of the present invention is applied to the oral surfaces in the oral cavity, and promotes overall oral health, including preventing plaque formation, caries formation, calculus formation, halitosis, gingivitis, and periodontitis, for example. For example, in an embodiment of the present invention, where an oral care composition comprises an orally acceptable delivery carrier and a safe and effective amount of the combination of an extract of hops and an extract of magnolia, it has been observed that the antibacterial activity is highly efficacious against both gram-positive and gram-negative bacteria.
(§2) It should be noted that any plant from the Magnoliaceae family is suitable for the present invention and may be used in alternate embodiments. Preferably such that the extract comprises an antimicrobially effective concentration of a compound selected from the group consisting of magnolol, honokiol, tetrahydromagnolol, tetrahydrohonokiol, and mixtures thereof.

[2] = system: P. gingivitis
Text: as §1, §2

[3] = system: A. naeslundii
Text: as §1, §2

[4] = system: F. nucleatum
Text: as §1, §2

[5] = system: S. mutans
Text: as §1, §2

Measured: bactericidal properties in Minimal Inhibitory Concentration (MIC) test

CCCc1ccc(O)c(-c2ccc(O)c(CCC)c2)c1 [tetrahydrohonokiol]
bactericidal: all assays above

C=CCc1ccc(O)c(-c2cc(CC=C)ccc2O)c1 [magnolol]
bactericidal: all assays above

C=CCc1ccc(O)c(-c2ccc(O)c(CC=C)c2)c1 [honokiol]
bactericidal: all assays above

CCCc1ccc(O)c(-c2cc(CCC)ccc2O)c1 [tetrahydromagnolol]
bactericidal: all assays above
